Measurements as given in PMC4921858, “Structural and functional characterization of the CAP domain of pathogen-related yeast 1 (Pry1) protein” (Scientific Reports, 2016).

Tests used:
[1] = target: T1, Pathogen-related yeast 1 (Pry1), CAP domain (Pry1CAP) (Saccharomyces cerevisiae, UniProt P47032); experiment: [3H]-cholesterol saturation radioligand binding with purified protein
T1 construct: C-terminal CAP domain, Ser151 through Ala296 (Pry1CAP)
T1 sequence (P47032 151-296): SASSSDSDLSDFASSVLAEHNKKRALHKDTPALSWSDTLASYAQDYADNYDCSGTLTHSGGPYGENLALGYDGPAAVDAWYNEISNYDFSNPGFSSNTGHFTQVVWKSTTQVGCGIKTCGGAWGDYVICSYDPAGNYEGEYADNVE

[2] = target: CAP domain of pathogen-related yeast protein-1 (Pry1) from Saccharomyces cerevisiae (Saccharomyces cerevisiae); experiment: SEC; 20 μg Pry1CAP injected on a Yarra SEC-2000 column, 0.5 ml/min, PBS pH 7.4 as mobile phase, calibrated with Bio-Rad gel filtration standards, in triplicate

Row | Compound | Kd [1] | stoichiometry N [2]
1 | CC(C)CCC[C@@H](C)[C@H]1CC[C@H]2[C@@H]3CC=C4C[C@@H](O)CC[C@]4(C)[C@H]3CC[C@]12C [cholesterol] | 2080 ± 70 nM | –
2 | CAP domain of pathogen-related yeast protein-1 (Pry1) from Saccharomyces cerevisiae (domain or fragment) | – | 2
